pIC50: −log10 of the molar value. The source made the active and inactive calls. No cut-off for these calls is given here.
How the values were obtained:
[1] = system: Blood; assay: Ratio of compound IC50 to TXA IC50 in anti-fibrinolytic activity in healthy human fresh blood by plasma clot lysis; assay type: functional
[2] = system: Rattus norvegicus; assay: Hemostatic effect in rt-PA enhanced Sprague-Dawley rat tail bleeding model assessed as reduction in tail bleeding time at 5 mg/kg infused into right jugular vein; assay type: functional, organism-based; conditions: route iv
[3] = biological target: Tissue-type plasminogen activator (Homo sapiens) (UniProt P00750); assay: Inhibition of recombinant human tissue plasminogen activator (rt-PA)-induced fibrinolysis in human fresh whole blood assessed as thrombus dissolution within 30 mins after reaching maximum amplitude (LY30) by thromboelastography analysis; assay type: functional, tissue-based
[4] = Volume of distribution at steady state in Sprague-Dawley rat at 1 mg/kg, iv measured upto 24 hrs by LC-MS/MS analysis; assay type: ADME, organism-based; conditions: in vivo, read-out: Vdss
[5] = Half life in beagle dog at 1 mg/kg, iv measured upto 24 hrs by LC-MS/MS analysis; assay type: ADME, organism-based, Canis lupus familiaris; conditions: in vivo
[6] = AUC (0 to infinity) in beagle dog at 1 mg/kg, iv measured upto 24 hrs by LC-MS/MS analysis; assay type: ADME, organism-based, Canis lupus familiaris; conditions: in vivo
[7] = (§1) Inhibition of Plasminogen (unknown origin) binding to fibrin (unknown origin) interaction by surface plasmon resonance (SPR) analysis; parameters: species or system Homo sapiens
[8] = species: Homo sapiens; assay: as §1
[9] = system: Rattus norvegicus; assay: Hemostatic effect in rt-PA enhanced Sprague-Dawley rat tail bleeding model assessed as reduction in tail bleeding time at 40 mg/kg infused into right jugular vein; assay type: functional, organism-based; conditions: route iv
[10] = biological target: Tissue-type plasminogen activator (Rattus norvegicus) (UniProt P19637); assay: Inhibition of recombinant tissue plasminogen activator (rt-PA)-induced fibrinolysis in Sprague-Dawley rat fresh whole blood assessed as thrombus dissolution within 30 mins after reaching maximum amplitude (LY30) at > 3 uM by thromboelastography analysis; assay type: functional, tissue-based
[11] = Clearance in beagle dog at 1 mg/kg, iv measured upto 24 hrs by LC-MS/MS analysis; assay type: ADME, organism-based, Canis lupus familiaris; conditions: in vivo
[12] = Volume of distribution at steady state in beagle dog at 1 mg/kg, iv measured upto 24 hrs by LC-MS/MS analysis; assay type: ADME, organism-based, Canis lupus familiaris; conditions: in vivo, read-out: Vdss
[13] = Clearance in Sprague-Dawley rat at 1 mg/kg, iv measured upto 24 hrs by LC-MS/MS analysis; assay type: ADME, organism-based; conditions: in vivo
[14] = AUC (0 to infinity) in Sprague-Dawley rat at 1 mg/kg, iv measured upto 24 hrs by LC-MS/MS analysis; assay type: ADME, organism-based; conditions: in vivo
[15] = Half life in Sprague-Dawley rat at 1 mg/kg, iv measured upto 24 hrs by LC-MS/MS analysis; assay type: ADME, organism-based; conditions: in vivo

Tissue-type plasminogen activator (Rattus norvegicus), sequence (P19637 whole entry): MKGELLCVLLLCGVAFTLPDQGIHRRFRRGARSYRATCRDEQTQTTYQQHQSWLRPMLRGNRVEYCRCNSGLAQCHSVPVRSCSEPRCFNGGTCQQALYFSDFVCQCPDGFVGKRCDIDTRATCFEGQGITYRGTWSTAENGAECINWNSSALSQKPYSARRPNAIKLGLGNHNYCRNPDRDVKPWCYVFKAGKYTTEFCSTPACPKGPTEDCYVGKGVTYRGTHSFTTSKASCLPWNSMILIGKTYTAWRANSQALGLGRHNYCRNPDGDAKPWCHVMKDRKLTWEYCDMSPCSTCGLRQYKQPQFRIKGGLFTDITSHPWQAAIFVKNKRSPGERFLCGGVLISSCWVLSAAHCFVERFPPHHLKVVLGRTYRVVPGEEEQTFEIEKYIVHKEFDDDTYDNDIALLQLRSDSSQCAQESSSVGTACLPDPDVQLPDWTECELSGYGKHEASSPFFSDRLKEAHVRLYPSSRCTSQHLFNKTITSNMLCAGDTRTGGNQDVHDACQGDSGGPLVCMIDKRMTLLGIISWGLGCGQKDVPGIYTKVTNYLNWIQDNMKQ
Tissue-type plasminogen activator (Homo sapiens), sequence (P00750 36-562 limits assumed): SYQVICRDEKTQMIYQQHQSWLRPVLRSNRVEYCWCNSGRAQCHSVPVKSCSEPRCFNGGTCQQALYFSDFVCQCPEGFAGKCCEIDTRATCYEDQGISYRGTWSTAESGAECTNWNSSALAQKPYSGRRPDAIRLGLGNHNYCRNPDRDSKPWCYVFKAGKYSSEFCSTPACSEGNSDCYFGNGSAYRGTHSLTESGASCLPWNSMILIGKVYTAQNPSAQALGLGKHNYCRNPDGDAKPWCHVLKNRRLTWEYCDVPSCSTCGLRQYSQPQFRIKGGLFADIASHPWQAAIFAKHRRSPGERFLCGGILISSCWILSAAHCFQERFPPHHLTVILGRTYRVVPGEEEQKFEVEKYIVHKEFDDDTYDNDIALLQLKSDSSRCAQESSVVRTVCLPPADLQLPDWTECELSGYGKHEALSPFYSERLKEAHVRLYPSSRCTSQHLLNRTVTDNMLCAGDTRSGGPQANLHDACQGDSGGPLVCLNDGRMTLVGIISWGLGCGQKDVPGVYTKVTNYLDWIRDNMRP

Structure (SMILES)	Ratio IC50 [1]	also measured
Cl.c1cc2c(nc1-c1nnn[nH]1)CCNC2	0.9	–
Cl.O=P(O)(O)c1ccc2c(n1)C(N1CCSCC1)CNC2 (mixture of isomers)	0.21	–
CC(C)CC1Cc2nc(P(=O)(O)O)ccc2CN1.Cl (mixture of isomers)	0.08	–
CS(=O)(=O)NC(=O)c1ccc2c(n1)CCNC2.Cl	2.06	–
CN(C)S(=O)(=O)NC(=O)c1ccc2c(n1)CCNC2.Cl	0.99	–
Cl.O=c1[nH]c(-c2ccc3c(n2)CCNC3)no1	0.86	–
Cl.O=C(O)c1cnc2c(c1)CCNC2	2.16	–
Cl.NS(=O)(=O)c1ccc2c(n1)CCNC2	4.26	–
Cl.O=C(O)c1nc2c([nH]1)CCNC2	>10	–
Cl.O=C(O)c1nc2c(s1)CNCC2	0.94	–
Cl.O=P(O)(CCc1ccccc1)c1ccc2c(n1)CCNC2	0.36	–
Cl.O=C(O)c1cc2c(s1)CNCC2	1.36	–
CC(C)(C)C[C@H]1C[C@@H](c2cc(=O)[nH]o2)CCN1.Cl	0.15	–
Cl.O=C(O)c1ccc2c(c1)CCNC2	0.63	–
NCCCCCC(=O)O	–	Activity [2]: inactive
Cl.O=P(O)(O)c1ccc2c(n1)C(N1CCS(=O)(=O)CC1)CNC2 (mixture of isomers)	0.25	–
CC(C)(C)CC1Cc2nc(P(=O)(O)O)ccc2CN1.Cl (mixture of isomers)	0.19	–
NC[C@H]1CC[C@H](C(=O)O)CC1 [TRANEXAMIC ACID]	–	IC90 [3]: 10.1 µM; Vd [4]: 0.296 L/kg; half-life [5]: 320 min; Activity [2]: Active; AUC(0-inf) [6]: 6680 ng·h/mL; pIC50 [7]: 5.27; IC90 [8]: 78.7 µM; Activity [9]: Active; inhibition [10]: Active; clearance [11]: 2.46 mL/min/kg; Vd [12]: 0.587 L/kg; clearance [13]: 5.78 mL/min/kg; AUC(0-inf) [14]: 2820 ng·h/mL; half-life [15]: 76.8 min
Cl.O=P(O)(O)c1ccc2c(n1)C(N1CC[S+]([O-])CC1)CNC2 (mixture of isomers)	0.17	–

From ChEMBL document CHEMBL6103656, “Discovery of BT-114143, a Novel and Potent Phosphoric Acid-Containing Small-Molecule Plasminogen Activation Inhibitor for Hyperfibrinolysis” (J Med Chem, 2025)
